{
  "source": "paper PMC6553790",
  "about": "(PLoS Pathogens, 2019)",
  "key": {"[1]": {"test_system": "P. falciparum Cam3.II lines", "test": "Stage-specificity 1 hr pulse survival assay", "assay_type": "cell-based, Plasmodium falciparum", "conditions": "150 nM", "protocol": "All stage-specificity tests were concluded 72 hr from the start of the experiment. Assays were performed in duplicate. Parasites were prepared by synchronizing ring stages with 5% D-Sorbitol and later isolating the schizonts over a 75% Percoll gradient. These schizonts were allowed to reinvade fresh RBCs at 2% hematocrit. Parasites were tested as purified schizonts, early rings, mid rings, late rings or trophozoites (~45–47, 0–3, 10–13, 18–21 and 24–27 hr post-invasion, respectively), and exposed to drug or DMSO vehicle control in 1 mL volumes. Parasites were seeded at 0.5% parasitemia and 1% hematocrit in a 48-well plate.\nDrug-treated parasites were washed as previously described for the RSA0-3h. Briefly, 1 mL cultures were transferred to 15 mL conical tubes, centrifuged at 800×g for 5 minutes to pellet cells, and the culture medium containing drug was carefully removed. Cells were subsequently resuspended in 10 mL drug-free medium, centrifuged, and the wash medium removed. Finally, cells were resuspended in 1 mL of fresh drug-free medium, transferred to a new well, and returned to standard culture conditions for the duration of the assay. Parasitemias were measured by flow cytometry and the survival of drug-treated parasites was calculated as a percent of DMSO-treated control cultures."}, "[2]": {"test_system": "P. falciparum Cam3.II lines", "test": "Isobologram analyses (fixed-ratio drug combinations)", "assay_type": "cell-based, Plasmodium falciparum", "protocol": "Assays were performed with fixed ratios of drug combinations (1:0, 4:1, 2:1, 1:1, 1:2, 1:4, and 0:1), tested in duplicate. Combinations were prepared from 16×IC50 drug stocks and tested across a range of two-fold dilutions. Assays were conducted with asynchronous cultures exposed for 72 hr or with tightly synchronized rings or trophozoites (tested at 0–3 hr or 24–27 hr post-invasion, respectively) exposed for 3 hr. Post-pulse drug washouts were conducted as described above for in vitro determination of IC50 levels. IC50 values were derived for each compound tested alone, and fractional IC50 (FIC50) values were determined for each compound tested in combination (FIC50 = […]) and plotted for each drug combination. For each combination, the mean of the sums of FIC50 values at each combination (mean ΣFIC50) was also calculated and the results illustrated using heat maps."}, "Plasmodium parasites": {"test_system": "Plasmodium parasites", "conditions": "cited from earlier work"}},
  "data": [
    {"smiles": "C[C@H]1[C@@H](O)O[C@@H]2O[C@@]3(C)CC[C@H]4[C@H](C)CC[C@@H]1[C@@]24OO3", "note": "[DHA, dihydroartemisinin]", "values": [
      {"measurement": "Mean percent survival", "setting": "[1]; Early rings (0–3 hpi), Cam3.II K13C580Y", "result": "57.9 ± 5.6", "unit": "%"},
      {"measurement": "Mean percent survival", "setting": "[1]; Early rings (0–3 hpi), Cam3.II K13WT", "result": "46.8 ± 10.6", "unit": "%"},
      {"measurement": "Mean percent survival", "setting": "[1]; Late rings (18–21 hpi), Cam3.II K13C580Y", "result": "13.5 ± 3.1", "unit": "%"},
      {"measurement": "Mean percent survival", "setting": "[1]; Late rings (18–21 hpi), Cam3.II K13WT", "result": "18.9 ± 5.6", "unit": "%"},
      {"measurement": "Mean percent survival", "setting": "[1]; Mid rings (10–13 hpi), Cam3.II K13C580Y", "result": "29.1 ± 3.4", "unit": "%"},
      {"measurement": "Mean percent survival", "setting": "[1]; Mid rings (10–13 hpi), Cam3.II K13WT", "result": "35.4 ± 2.7", "unit": "%"},
      {"measurement": "Mean percent survival", "setting": "[1]; Schizonts (45–48 hpi), Cam3.II K13C580Y", "result": "71.9 ± 13.6", "unit": "%"},
      {"measurement": "Mean percent survival", "setting": "[1]; Schizonts (45–48 hpi), Cam3.II K13WT", "result": "59.0 ± 5.3", "unit": "%"},
      {"measurement": "Mean percent survival", "setting": "[1]; Trophs (24–27 hpi), Cam3.II K13C580Y", "result": "4.1 ± 0.6", "unit": "%"},
      {"measurement": "Mean percent survival", "setting": "[1]; Trophs (24–27 hpi), Cam3.II K13WT", "result": "2.3 ± 0.1", "unit": "%"},
      {"measurement": "Interaction with WLW (isobologram)", "setting": "[2]; asynchronous parasites, early rings and trophozoites, Cam3.II K13WT and K13C580Y", "result": "synergy"},
      {"measurement": "Mean of the sums of FIC50 (mean ΣFIC50)", "setting": "[2]; combined with WLL, Asynchronous, 72 hr, Cam3.II K13WT", "result": 0.89},
      {"measurement": "Mean of the sums of FIC50 (mean ΣFIC50)", "setting": "[2]; combined with WLL, Rings, 3 hr exposure, Cam3.II K13C580Y", "result": 0.77},
      {"measurement": "Mean of the sums of FIC50 (mean ΣFIC50)", "setting": "[2]; combined with WLL, Rings, 3 hr exposure, Cam3.II K13WT", "result": 0.69},
      {"measurement": "Mean of the sums of FIC50 (mean ΣFIC50)", "setting": "[2]; combined with WLL, Trophozoites, 3 hr exposure, Cam3.II K13C580Y", "result": 0.68},
      {"measurement": "Mean of the sums of FIC50 (mean ΣFIC50)", "setting": "[2]; combined with WLL, Trophozoites, 3 hr exposure, Cam3.II K13WT", "result": 0.70},
      {"measurement": "Mean of the sums of FIC50 (mean ΣFIC50)", "setting": "[2]; combined with WLW, Asynchronous, 72 hr, Cam3.II K13C580Y", "result": 0.71},
      {"measurement": "Mean of the sums of FIC50 (mean ΣFIC50)", "setting": "[2]; combined with WLW, Asynchronous, 72 hr, Cam3.II K13WT", "result": 0.66},
      {"measurement": "Mean of the sums of FIC50 (mean ΣFIC50)", "setting": "[2]; combined with WLW, Rings, 3 hr exposure, Cam3.II K13C580Y", "result": 0.44},
      {"measurement": "Mean of the sums of FIC50 (mean ΣFIC50)", "setting": "[2]; combined with WLW, Rings, 3 hr exposure, Cam3.II K13WT", "result": 0.43},
      {"measurement": "Mean of the sums of FIC50 (mean ΣFIC50)", "setting": "[2]; combined with WLW, Trophozoites, 3 hr exposure, Cam3.II K13C580Y", "result": 0.73},
      {"measurement": "Mean of the sums of FIC50 (mean ΣFIC50)", "setting": "[2]; combined with WLW, Trophozoites, 3 hr exposure, Cam3.II K13WT", "result": 0.69},
      {"measurement": "Interaction with WLL (isobologram)", "setting": "[2]; early rings and trophozoites", "result": "Synergy"}
    ]},
    {"smiles": "CC(C)(C)NC(=O)C[C@H](NC(=O)CCc1ccccc1)C(=O)NCCNC(=O)c1cccc(-c2ccccc2)c1", "note": "[PKS21004]", "values": [
      {"measurement": "Resistance of selected parasites, fold increase over the sensitive parent", "setting": "Plasmodium parasites", "result": "> 130", "unit": "fold"}
    ]}
  ]
}
